# In paper PMC12592418, “Therapeutic potential of red bean (phaseolus vulgaris) peptides: anticancer, antihypertension, and antioxidant activities” (Scientific Reports, 2025):
# No end group written: not given here.
# Legend:
# MCF-7 cells = assay: MTT cell viability assay, MCF-7; assay type: cell-based, human; settings: synthetic peptide 100 µg/ml, 24 h, mean ± SD
# Protocol: (§1) CaCO2, HepG2, MCF-7, NCI-H460, SiHa, SW620, and Vero cells were obtained from the American Type Culture Collection (ATCC, Manassas, VA, USA). Cells were cultured in Dulbecco’s Modified Eagle’s Medium (DMEM; PAA, Pasching, Austria), supplemented with 10% (v/v) fetal bovine serum (Gibco, South America), 10 mM HEPES (HyClone, Utah, USA), 2 mM L-glutamine, and 100 U/mL penicillin and 100 µg/mL streptomycin. Cultures were maintained at 37 °C in a humidified atmosphere containing 5% CO₂.
# (§2) The anticancer activity of protein hydrolysates and synthetic peptides against CaCO2, HepG2, MCF-7, NCI-H460, SiHa, SW620, and Vero cells were evaluated using the MTT assay. Cells were seeded into 96-well plates (Nunc™, Roskilde, Denmark) at a density of 2 × 10⁴ cells per well, and allowed to adhere. Following seeding, cells were treated with 100 µg/mL of protein hydrolysates or synthetic peptides for 24 h, while untreated cells served as controls. After 24 h, 20 µL of MTT solution (5 mg/mL; Sigma, St. Louis, MO, USA) was added to each well and incubated for an additional 3 h. The supernatant was then removed, and 100 µL of DMSO was added to each well to dissolve the formazan crystals. Optical density (OD) was measured at 540 nm using a microplate reader (Rayto RT-2100 C, China). Cell viability was calculated using the equation: (OD of treated cells/OD of untreated cells) × 100.
# (§3) The IC50 values were calculated from a fitted semi-log response curve, plotting cell viability percentages against concentration. These values were determined using the AAT-Bioquest IC50 calculator (https://www.aatbio.com/tools/ic50-calculator).
# CaCO2 cells = assay: MTT cell viability assay, CaCO2; assay type: cell-based, human; settings: synthetic peptide 100 µg/ml, 24 h, mean ± SD, n = 3
# Protocol: as §1, §2, §3
# [1] = DPPH radical scavenging assay; assay type: physicochemical; settings: peptide 100 µg/ml, 0.1 mM DPPH, 30 min in the dark, room temperature, absorbance 517 nm, mean ± SD, n = 3
# Protocol: The DPPH radical scavenging activity of the sample was evaluated following the protocol by Muangrod et al.[48] with slight modifications. Briefly, 190 µL of 0.1 mM DPPH was mixed with 10 µL of the sample or standard ascorbic acid in each well and incubated at room temperature in the dark for 30 min. The absorbance of the mixture was measured at 517 nm using a microplate reader (Rayto RT-2100 C, China). Ascorbic acid was used as the standard. Results were expressed as micrograms ascorbic acid equivalent (µg AAE g^−1).
# [2] = FRAP ferric ion-reducing antioxidant power assay; assay type: physicochemical; settings: peptide 100 µg/ml, 30 min in the dark, absorbance 593 nm, mean ± SD, n = 3
# Protocol: The ferric ion-reducing antioxidant power assay was analyzed according to the method by Rumpf et al.[47] with minor modifications. Briefly, the FRAP reagent was prepared from 300 mM sodium acetate (pH 3.6) and 10 mM TPTZ (2,4,6-tris (2-pyridyl)-s-triazine) in 40 mM HCl and 20 mM ferric chloride at the ratio of 10:1:1, respectively. Then, a 10 µL aliquot of the sample or standard was mixed with 190 µL of the FRAP reagent before incubating in the dark for 30 min. The absorbance was measured at 593 nm using a microplate reader (Rayto RT-2100 C, China). Ascorbic acid was used as the standard. Results were expressed as micrograms of ascorbic acid equivalent per gram (µg AAE g^−1).
# SiHa cells = assay: MTT cell viability assay, SiHa; assay type: cell-based, human; settings: synthetic peptide 100 µg/ml, 24 h, mean ± SD, n = 3
# Protocol: as §1, §2, §3
# [3] = ABTS radical scavenging assay; assay type: physicochemical; settings: peptide 100 µg/ml, 5 min in the dark, absorbance 750 nm, mean ± SD, n = 3
# Protocol: Radical scavenging antioxidant activity was determined according to the ABTS radical scavenging activity following the method described by Re et al.[46] with slight modifications. Briefly, the solution of ABTS radical was prepared from the reaction between 7 mM ABTS (2,2-azino-bis (3-ethylbenzothiazoline-6-sulphonic acid) diammonium salt) and 2.45 mM ammonium persulphate. The resulting ABTS solution was diluted with distilled water to achieve an optical density of 0.7 at 750 nm. Then, a sample or standard of 10 µL was mixed with 190 µL of ABTS solution and incubated for 5 min in the dark. The absorbance was measured at 750 nm by a microplate reader (Rayto RT-2100 C, China). Ascorbic acid was used as the standard.
# Vero cells = assay: MTT cell viability assay, Vero; assay type: cell-based, monkey; settings: synthetic peptide 100 µg/ml, 24 h, mean ± SD, n = 3
# Protocol: as §1, §2, §3
# SW620 cells = assay: MTT cell viability assay, SW620; assay type: cell-based, human; settings: synthetic peptide 100 µg/ml, 24 h, mean ± SD
# Protocol: as §1, §2, §3
# [4] = test system: angiotensin-converting enzyme (ACE); assay: ACE inhibitory activity assay (HHL substrate); assay type: biochemical; settings: peptide 100 µg/ml, ACE 0.2 U/mL, 5 mM HHL, phosphate buffer pH 6.8, 37 °C, mean ± SD, n = 3
# Protocol: The method utilized here is a spectrophotometric method based on the commonly used method introduced by Cushman and Cheung (1971)[45]. The 5 ul of sample was preincubated with 45 ul of ACE enzyme (0.2 U/mL) in 100 mM Phosphate buffer (pH 6.8) and incubated for 10 min at 37 °C. Enzyme activity was assayed by monitoring the hydrolysis of hippuryl-L-histidyl-L-leucine (HHL). After adding 50 µL of a 5 mM HHL substrate solution, the increase in absorbance at 405 nm was measured every minute for 15 min at 37 °C using a 96-well microplate reader. The initial velocity was determined from the linear portion of the curve, and the inhibitory activity was expressed as a percentage calculated using the following equation:
# % inhibition = (1-(B-b)/(A-a)) x 100,
# where A is an initial velocity of the control reaction with enzyme (control), a is an initial velocity of the control reaction without enzyme (control blank), B is an initial velocity of the enzyme reaction with sample and b is an initial velocity of the reaction with sample but without enzyme (sample blank).
# HepG2 cells = assay: MTT cell viability assay, HepG2; assay type: cell-based, human; settings: synthetic peptide 100 µg/ml, 24 h, mean ± SD, n = 3
# Protocol: as §1, §2, §3
# NCI-H460 cells = assay: MTT cell viability assay, NCI-H460; assay type: cell-based, human; settings: synthetic peptide 100 µg/ml, 24 h, mean ± SD
# Protocol: as §1, §2, §3
# [5] = biological target: T1, angiotensin-converting enzyme (ACE) (UniProt P12822)
# T1 sequence (P12822 whole entry, species assumed, looked up): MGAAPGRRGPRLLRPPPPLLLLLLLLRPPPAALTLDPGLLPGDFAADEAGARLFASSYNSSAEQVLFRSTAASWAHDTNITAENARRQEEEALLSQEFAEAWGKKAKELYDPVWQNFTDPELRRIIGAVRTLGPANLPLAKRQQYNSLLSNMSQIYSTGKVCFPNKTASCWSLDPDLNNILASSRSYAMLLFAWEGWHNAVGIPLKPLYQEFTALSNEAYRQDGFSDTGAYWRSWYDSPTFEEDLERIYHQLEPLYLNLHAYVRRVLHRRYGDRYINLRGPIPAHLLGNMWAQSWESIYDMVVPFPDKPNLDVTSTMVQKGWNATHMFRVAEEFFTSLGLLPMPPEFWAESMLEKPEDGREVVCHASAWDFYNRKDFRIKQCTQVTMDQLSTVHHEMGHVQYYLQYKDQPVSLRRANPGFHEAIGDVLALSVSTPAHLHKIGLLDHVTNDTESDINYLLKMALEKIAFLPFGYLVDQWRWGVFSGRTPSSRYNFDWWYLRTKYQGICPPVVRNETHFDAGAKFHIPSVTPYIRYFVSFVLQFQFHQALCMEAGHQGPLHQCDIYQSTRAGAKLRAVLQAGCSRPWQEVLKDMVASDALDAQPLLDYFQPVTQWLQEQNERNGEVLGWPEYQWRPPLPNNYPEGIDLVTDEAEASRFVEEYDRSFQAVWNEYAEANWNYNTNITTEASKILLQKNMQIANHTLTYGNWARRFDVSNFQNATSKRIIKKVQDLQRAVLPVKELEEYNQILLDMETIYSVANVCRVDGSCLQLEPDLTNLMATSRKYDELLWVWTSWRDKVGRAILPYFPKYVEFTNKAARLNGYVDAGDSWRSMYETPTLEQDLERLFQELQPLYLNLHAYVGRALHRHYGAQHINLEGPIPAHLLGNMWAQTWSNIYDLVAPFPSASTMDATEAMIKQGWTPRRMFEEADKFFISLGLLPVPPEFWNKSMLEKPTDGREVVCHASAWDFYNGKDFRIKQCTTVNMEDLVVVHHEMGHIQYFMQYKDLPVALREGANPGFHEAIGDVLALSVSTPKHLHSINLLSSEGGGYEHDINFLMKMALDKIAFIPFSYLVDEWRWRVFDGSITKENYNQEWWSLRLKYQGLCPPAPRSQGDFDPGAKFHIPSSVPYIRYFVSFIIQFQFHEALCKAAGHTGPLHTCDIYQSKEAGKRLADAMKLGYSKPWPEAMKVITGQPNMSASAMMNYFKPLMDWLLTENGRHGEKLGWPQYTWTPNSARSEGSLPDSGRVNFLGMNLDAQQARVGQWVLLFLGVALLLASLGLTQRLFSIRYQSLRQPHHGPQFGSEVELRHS
molecule,measurement,setting,value
APANGSAF [RB-5],"Inhibitory percentage, MCF-7",MCF-7 cells; n = 3,0%
same,"Inhibitory percentage, CaCO2",CaCO2 cells,13.21±0.04%
same,"Antioxidant, DPPH",[1],374.62±13.56 µg ascorbic acid equivalent
same,"Antioxidant, FRAP",[2],87.48±0.20 µg ascorbic acid equivalent
same,"Inhibitory percentage, SiHa",SiHa cells,8.75±0.00%
same,"Antioxidant, ABTS",[3],412.60±0.71 µg ascorbic acid equivalent
same,"Inhibitory percentage, Vero",Vero cells,0%
same,"Inhibitory percentage, SW620","SW620 cells; n = 3, SD",3.58±0.04%
same,"Antihypertension (%), percentage inhibition of ACE",[4]; SD,43.33±0.33%
same,"Inhibitory percentage, HepG2",HepG2 cells,0%
same,"Inhibitory percentage, NCI-H460","NCI-H460 cells; n = 3, SD",10.58±0.03%
DHPTGGL [RB-2],"Inhibitory percentage, MCF-7",MCF-7 cells; n = 3,0%
same,"Inhibitory percentage, CaCO2",CaCO2 cells,8.99±0.08%
same,"Antioxidant, DPPH",[1],239.10±0.83 µg ascorbic acid equivalent
same,"Antioxidant, FRAP",[2],59.87±0.06 µg ascorbic acid equivalent
same,"Inhibitory percentage, SiHa",SiHa cells,10.28±0.02%
same,"Antioxidant, ABTS",[3],284.62±0.75 µg ascorbic acid equivalent
same,"Inhibitory percentage, Vero",Vero cells,0%
same,"Inhibitory percentage, SW620",SW620 cells; n = 3,0%
same,"Antihypertension (%), percentage inhibition of ACE",[4],0%
same,"Inhibitory percentage, HepG2",HepG2 cells,0%
same,"Inhibitory percentage, NCI-H460",NCI-H460 cells; n = 3,0%
GSEIRSTSDDVL [RB-4],"Inhibitory percentage, MCF-7",MCF-7 cells; n = 3,0%
same,"Inhibitory percentage, CaCO2",CaCO2 cells,11.27±0.07%
same,"Antioxidant, DPPH",[1],424.61±1.53 µg ascorbic acid equivalent
same,"Antioxidant, FRAP",[2],128.47±0.86 µg ascorbic acid equivalent
same,"Inhibitory percentage, SiHa",SiHa cells,11.45±0.00%
same,"Antioxidant, ABTS",[3],539.58±3.43 µg ascorbic acid equivalent
same,"Inhibitory percentage, Vero",Vero cells,0%
same,"Inhibitory percentage, SW620",SW620 cells; n = 3,0%
same,"Antihypertension (%), percentage inhibition of ACE",[4]; SD,13.33±0.60%
same,"Inhibitory percentage, HepG2",HepG2 cells,0%
same,"Inhibitory percentage, NCI-H460","NCI-H460 cells; n = 3, SD",6.08±0.01%
LIIPATSTKFL [RB-8],"Inhibitory percentage, CaCO2",CaCO2 cells,20.79±1.23%
NLRKLKRL [RB-1],"Inhibitory percentage, MCF-7","MCF-7 cells; n = 3, SD",2.10±0.00%
same,"Inhibitory percentage, CaCO2",CaCO2 cells,7.33±0.02%
same,"Antioxidant, DPPH",[1],373.74±12.01 µg ascorbic acid equivalent
same,"Antioxidant, FRAP",[2],189.53±6.59 µg ascorbic acid equivalent
same,"Inhibitory percentage, SiHa",SiHa cells,4.64±0.02%
same,"Antioxidant, ABTS",[3],367.86±25.39 µg ascorbic acid equivalent
same,"Inhibitory percentage, Vero",Vero cells,0%
same,"Inhibitory percentage, SW620",SW620 cells; n = 3,0%
same,"Antihypertension (%), percentage inhibition of ACE",[4]; SD,20.00±2.82%
same,"Inhibitory percentage, HepG2",HepG2 cells,0%
same,"Inhibitory percentage, NCI-H460","NCI-H460 cells; n = 3, SD",5.40±0.01%
LIIPATSTKFL [RB-8],Antihypertension (%): percent inhibition of ACE activity (hydrolysis of hippuryl-L-histidyl-L-leucine) at 100 µg/ml peptide,[5],16.7%
APANGSAF [RB-5],Antihypertension (%): percent inhibition of ACE activity (hydrolysis of hippuryl-L-histidyl-L-leucine) at 100 µg/ml peptide,[5],43.3%
RGSKQRQKRQW [RB-7],Antihypertension (%): percent inhibition of ACE activity (hydrolysis of hippuryl-L-histidyl-L-leucine) at 100 µg/ml peptide,[5],60%
SPTPPKNVPF [RB-3],Antihypertension (%): percent inhibition of ACE activity (hydrolysis of hippuryl-L-histidyl-L-leucine) at 100 µg/ml peptide,[5],20%
NLRKLKRL [RB-1],Antihypertension (%): percent inhibition of ACE activity (hydrolysis of hippuryl-L-histidyl-L-leucine) at 100 µg/ml peptide,[5],20%
DHPTGGL [RB-2],Antihypertension (%): percent inhibition of ACE activity (hydrolysis of hippuryl-L-histidyl-L-leucine) at 100 µg/ml peptide,[5],0%
RRLRILL [RB-6],Antihypertension (%): percent inhibition of ACE activity (hydrolysis of hippuryl-L-histidyl-L-leucine) at 100 µg/ml peptide,[5],46.7%
GSEIRSTSDDVL [RB-4],Antihypertension (%): percent inhibition of ACE activity (hydrolysis of hippuryl-L-histidyl-L-leucine) at 100 µg/ml peptide,[5],13.3%
